The source made the active and inactive calls. For most assays here, no stated cut-off is given here; in the data, actives have a measured Kd and inactives only a lower limit.
How the values were obtained:
[1] = target: T1, AarF domain-containing protein kinase 1 (Homo sapiens, UniProt Q86TW2)
T1 sequence (Q86TW2 whole entry): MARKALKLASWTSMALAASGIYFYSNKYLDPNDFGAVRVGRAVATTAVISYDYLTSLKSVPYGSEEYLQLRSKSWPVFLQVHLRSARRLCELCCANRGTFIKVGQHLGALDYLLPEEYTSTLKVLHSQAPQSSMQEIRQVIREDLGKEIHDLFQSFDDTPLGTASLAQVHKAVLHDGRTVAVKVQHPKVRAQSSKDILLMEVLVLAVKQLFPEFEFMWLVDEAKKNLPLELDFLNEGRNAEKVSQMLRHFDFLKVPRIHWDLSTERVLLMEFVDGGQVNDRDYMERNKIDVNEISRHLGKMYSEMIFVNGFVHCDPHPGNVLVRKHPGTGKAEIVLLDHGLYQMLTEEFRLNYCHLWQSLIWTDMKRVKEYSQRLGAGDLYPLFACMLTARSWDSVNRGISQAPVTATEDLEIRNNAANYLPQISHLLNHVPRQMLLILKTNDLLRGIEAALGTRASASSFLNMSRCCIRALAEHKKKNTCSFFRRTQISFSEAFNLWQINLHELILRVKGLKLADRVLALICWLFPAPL

[2] = target: T2, Serine/threonine-protein kinase 4 (Homo sapiens, UniProt Q13043)
T2 sequence (Q13043 whole entry): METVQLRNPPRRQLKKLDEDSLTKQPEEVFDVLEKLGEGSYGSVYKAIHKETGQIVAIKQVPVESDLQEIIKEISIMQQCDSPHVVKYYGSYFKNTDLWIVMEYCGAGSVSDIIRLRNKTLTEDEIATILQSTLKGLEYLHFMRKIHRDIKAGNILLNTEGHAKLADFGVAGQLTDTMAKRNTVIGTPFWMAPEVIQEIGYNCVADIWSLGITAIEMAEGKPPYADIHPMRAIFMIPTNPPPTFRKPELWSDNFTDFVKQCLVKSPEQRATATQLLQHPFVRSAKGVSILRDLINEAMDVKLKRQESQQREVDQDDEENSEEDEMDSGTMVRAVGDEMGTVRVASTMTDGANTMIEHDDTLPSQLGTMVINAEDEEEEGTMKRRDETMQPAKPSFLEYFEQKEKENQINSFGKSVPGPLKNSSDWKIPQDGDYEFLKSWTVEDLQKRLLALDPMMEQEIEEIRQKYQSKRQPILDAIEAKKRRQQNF

[3] = target: Mitotic checkpoint serine/threonine-protein kinase BUB1 (Homo sapiens, UniProt O43683)
[4] = target: T3, Bone morphogenetic protein receptor type-2 (Homo sapiens, UniProt Q13873)
T3 sequence (Q13873 whole entry): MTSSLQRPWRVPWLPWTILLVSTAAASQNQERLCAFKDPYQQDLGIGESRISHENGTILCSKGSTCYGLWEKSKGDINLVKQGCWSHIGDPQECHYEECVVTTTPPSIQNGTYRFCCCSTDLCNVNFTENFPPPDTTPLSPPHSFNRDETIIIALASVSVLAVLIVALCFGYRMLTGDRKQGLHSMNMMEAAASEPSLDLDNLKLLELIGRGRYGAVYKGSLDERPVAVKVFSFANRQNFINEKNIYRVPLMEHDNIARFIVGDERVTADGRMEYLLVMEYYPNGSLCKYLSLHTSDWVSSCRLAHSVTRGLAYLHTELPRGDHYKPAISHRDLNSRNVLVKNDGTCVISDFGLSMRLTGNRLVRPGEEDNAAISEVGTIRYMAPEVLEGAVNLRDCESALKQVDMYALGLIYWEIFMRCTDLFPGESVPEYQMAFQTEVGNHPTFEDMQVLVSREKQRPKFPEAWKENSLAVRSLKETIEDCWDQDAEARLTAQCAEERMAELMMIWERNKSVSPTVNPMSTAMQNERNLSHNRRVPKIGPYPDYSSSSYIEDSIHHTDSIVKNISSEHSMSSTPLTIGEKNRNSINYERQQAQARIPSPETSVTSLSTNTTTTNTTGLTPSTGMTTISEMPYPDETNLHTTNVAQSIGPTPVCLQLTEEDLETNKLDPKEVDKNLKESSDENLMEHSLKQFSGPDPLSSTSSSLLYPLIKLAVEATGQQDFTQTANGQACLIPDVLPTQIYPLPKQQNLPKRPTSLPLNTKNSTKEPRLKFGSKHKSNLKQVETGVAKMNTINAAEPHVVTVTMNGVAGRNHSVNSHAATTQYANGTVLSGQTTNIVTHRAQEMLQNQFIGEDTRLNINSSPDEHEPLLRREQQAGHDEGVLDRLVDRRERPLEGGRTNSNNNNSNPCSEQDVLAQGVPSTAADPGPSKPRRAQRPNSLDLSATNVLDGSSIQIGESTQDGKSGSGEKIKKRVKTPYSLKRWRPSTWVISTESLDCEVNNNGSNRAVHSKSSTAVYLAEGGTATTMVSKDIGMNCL

[5] = target: Membrane-associated progesterone receptor component 1 (Homo sapiens, UniProt O00264)
[6] = target: Tyrosine-protein kinase FRK (Homo sapiens, UniProt P42685)
[7] = target: T4, Interleukin-1 receptor-associated kinase 4 (Homo sapiens, UniProt Q9NWZ3)
T4 sequence (Q9NWZ3 whole entry): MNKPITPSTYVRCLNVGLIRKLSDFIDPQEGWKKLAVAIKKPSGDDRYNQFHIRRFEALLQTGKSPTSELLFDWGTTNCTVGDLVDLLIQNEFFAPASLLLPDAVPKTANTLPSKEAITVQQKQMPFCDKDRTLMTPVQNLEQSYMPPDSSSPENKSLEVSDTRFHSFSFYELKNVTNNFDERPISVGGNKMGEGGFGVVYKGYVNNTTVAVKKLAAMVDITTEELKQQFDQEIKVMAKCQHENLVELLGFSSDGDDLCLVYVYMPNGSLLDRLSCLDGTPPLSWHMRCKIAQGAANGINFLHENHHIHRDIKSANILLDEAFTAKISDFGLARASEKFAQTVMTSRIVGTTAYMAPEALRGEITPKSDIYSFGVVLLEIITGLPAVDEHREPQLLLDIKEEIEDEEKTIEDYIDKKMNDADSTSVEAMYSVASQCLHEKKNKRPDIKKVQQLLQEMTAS

[8] = target: Receptor-interacting serine/threonine-protein kinase 3 (Homo sapiens, UniProt Q9Y572)
Focal adhesion kinase 1 = Focal adhesion kinase 1 (Homo sapiens, UniProt Q05397)
Focal adhesion kinase 1, sequence (Q05397 whole entry): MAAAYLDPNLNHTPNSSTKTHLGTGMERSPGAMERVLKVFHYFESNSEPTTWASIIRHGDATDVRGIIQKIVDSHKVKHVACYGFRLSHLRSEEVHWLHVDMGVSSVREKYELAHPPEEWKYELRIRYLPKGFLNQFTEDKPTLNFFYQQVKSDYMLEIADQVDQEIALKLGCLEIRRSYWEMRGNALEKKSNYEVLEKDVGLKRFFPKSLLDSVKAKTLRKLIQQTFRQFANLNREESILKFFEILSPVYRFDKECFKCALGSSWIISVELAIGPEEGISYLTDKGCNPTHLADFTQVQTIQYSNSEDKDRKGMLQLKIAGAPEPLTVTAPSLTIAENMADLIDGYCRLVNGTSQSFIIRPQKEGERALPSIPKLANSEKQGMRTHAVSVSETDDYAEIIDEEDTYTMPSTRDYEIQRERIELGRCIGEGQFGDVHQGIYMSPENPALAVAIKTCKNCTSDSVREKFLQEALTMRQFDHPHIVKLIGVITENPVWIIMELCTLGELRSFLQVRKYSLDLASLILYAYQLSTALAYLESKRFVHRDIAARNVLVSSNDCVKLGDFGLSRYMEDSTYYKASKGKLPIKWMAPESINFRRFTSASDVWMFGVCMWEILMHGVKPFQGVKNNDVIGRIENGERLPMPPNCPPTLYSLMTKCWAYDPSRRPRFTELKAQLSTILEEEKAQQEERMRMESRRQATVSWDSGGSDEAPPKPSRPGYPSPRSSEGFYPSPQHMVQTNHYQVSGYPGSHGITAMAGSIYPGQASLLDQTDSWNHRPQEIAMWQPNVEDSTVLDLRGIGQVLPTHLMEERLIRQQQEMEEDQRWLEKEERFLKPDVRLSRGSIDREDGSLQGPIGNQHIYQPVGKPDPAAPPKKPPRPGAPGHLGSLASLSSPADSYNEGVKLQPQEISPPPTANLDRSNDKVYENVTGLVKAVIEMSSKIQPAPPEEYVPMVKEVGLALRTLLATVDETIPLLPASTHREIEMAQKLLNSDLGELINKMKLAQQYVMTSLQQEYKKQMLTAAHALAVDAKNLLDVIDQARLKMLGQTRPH

Mitotic checkpoint serine/threonine-protein kinase BUB1, sequence (O43683 whole entry): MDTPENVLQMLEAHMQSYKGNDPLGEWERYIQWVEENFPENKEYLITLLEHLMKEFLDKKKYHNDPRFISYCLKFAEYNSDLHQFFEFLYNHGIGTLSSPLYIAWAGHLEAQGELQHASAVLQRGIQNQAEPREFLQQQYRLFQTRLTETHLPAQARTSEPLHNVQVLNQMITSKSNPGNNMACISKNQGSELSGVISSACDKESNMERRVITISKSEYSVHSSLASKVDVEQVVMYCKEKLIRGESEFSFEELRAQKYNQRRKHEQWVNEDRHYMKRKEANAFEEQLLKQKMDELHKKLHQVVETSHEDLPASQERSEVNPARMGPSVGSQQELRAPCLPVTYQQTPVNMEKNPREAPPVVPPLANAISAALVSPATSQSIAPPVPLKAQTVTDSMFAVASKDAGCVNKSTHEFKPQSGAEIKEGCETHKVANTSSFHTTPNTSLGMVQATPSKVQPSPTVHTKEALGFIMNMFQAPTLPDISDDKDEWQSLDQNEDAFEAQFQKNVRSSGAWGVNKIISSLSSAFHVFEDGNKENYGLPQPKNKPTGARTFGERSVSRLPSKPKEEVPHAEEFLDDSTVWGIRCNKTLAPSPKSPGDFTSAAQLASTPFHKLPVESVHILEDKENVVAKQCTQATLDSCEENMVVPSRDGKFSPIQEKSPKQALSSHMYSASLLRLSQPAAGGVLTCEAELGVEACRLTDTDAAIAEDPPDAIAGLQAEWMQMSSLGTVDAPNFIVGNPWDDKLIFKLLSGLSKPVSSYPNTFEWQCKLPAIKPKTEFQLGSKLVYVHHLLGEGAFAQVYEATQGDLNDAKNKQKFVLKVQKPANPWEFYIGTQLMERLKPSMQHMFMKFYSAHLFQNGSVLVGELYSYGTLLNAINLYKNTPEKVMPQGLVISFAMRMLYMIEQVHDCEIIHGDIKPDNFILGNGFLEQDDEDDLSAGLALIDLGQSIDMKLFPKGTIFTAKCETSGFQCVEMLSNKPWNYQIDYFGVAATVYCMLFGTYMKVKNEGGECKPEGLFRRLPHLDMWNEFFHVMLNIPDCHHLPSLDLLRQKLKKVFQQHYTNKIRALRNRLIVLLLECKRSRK
Membrane-associated progesterone receptor component 1, sequence (O00264 whole entry): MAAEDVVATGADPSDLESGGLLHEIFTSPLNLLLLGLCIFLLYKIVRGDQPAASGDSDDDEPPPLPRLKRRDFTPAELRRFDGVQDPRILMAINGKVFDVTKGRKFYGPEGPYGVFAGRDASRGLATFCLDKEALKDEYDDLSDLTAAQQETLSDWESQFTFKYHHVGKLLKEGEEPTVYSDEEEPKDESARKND
Tyrosine-protein kinase FRK, sequence (P42685 whole entry): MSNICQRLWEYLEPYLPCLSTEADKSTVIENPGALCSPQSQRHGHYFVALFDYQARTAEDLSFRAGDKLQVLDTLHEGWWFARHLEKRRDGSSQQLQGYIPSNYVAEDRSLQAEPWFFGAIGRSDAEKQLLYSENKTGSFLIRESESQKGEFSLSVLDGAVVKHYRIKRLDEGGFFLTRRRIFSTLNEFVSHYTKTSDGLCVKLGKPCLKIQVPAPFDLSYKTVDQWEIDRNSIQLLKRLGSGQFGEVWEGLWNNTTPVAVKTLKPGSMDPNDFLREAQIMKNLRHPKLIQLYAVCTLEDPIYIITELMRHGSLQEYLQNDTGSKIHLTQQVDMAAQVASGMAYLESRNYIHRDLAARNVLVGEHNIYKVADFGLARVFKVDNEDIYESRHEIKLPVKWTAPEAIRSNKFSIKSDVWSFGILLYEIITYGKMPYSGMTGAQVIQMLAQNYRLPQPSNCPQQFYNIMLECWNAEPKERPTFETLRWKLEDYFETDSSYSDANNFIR
Receptor-interacting serine/threonine-protein kinase 3, sequence (Q9Y572 whole entry): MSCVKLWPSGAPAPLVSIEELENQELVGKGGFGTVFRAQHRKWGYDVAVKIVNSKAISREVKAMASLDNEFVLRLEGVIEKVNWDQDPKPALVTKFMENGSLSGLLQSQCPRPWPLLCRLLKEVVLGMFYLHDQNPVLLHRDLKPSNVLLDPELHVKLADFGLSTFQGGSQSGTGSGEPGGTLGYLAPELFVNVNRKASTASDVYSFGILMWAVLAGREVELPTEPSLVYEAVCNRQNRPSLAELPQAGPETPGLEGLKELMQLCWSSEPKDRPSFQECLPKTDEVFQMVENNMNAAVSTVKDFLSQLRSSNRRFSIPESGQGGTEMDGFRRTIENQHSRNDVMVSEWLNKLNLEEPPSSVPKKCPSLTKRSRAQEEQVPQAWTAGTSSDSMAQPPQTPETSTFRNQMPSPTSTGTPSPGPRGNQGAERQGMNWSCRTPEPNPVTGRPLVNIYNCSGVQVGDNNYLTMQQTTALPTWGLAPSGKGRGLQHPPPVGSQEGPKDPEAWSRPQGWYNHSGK

| SMILES | Kd [1] | Kd [2] | Kd [3] | Kd [4] | Kd [5] | Kd [6] | Kd [7] | Kd [8] | Kd (Focal adhesion kinase 1) |
| --- | --- | --- | --- | --- | --- | --- | --- | --- | --- |
| CO[C@H]1C[C@@H]2CC[C@@H](C)[C@@](O)(O2)C(=O)C(=O)N2CCCC[C@H]2C(=O)O[C@H]([C@H](C)C[C@@H]2CC[C@@H](OC(=O)C(C)(CO)CO)[C@H](OC)C2)CC(=O)[C@H](C)/C=C(\C)[C@@H](O)[C@@H](OC)C(=O)[C@H](C)C[C@H](C)/C=C/C=C/C=C/1C [TEMSIROLIMUS] | > 30 µM (inactive) | > 30 µM (inactive) | > 30 µM (inactive) | > 30 µM (inactive) | > 30 µM (inactive) | > 30 µM (inactive) | > 30 µM (inactive) | > 30 µM (inactive) | > 30 µM (inactive) |
| O=C(Cc1ccc(-c2ccc(OCCN3CCOCC3)cc2)cn1)NCc1ccccc1 [TIRBANIBULIN] | > 30 µM (inactive) | > 30 µM (inactive) | > 30 µM (inactive) | > 30 µM (inactive) | > 30 µM (inactive) | > 30 µM (inactive) | > 30 µM (inactive) | > 30 µM (inactive) | > 30 µM (inactive) |
| O=C1NC(=O)[C@@H](c2cn3c4c(cccc24)CCC3)[C@@H]1c1c[nH]c2ccccc12 [TIVANTINIB] | > 30 µM (inactive) | > 30 µM (inactive) | > 30 µM (inactive) | > 30 µM (inactive) | > 30 µM (inactive) | > 30 µM (inactive) | > 30 µM (inactive) | > 30 µM (inactive) | > 30 µM (inactive) |
| Cc1cc(Nc2ncnc3ccc(NC4=NC(C)(C)CO4)cc23)ccc1Oc1ccn2ncnc2c1 [TUCATINIB] | > 30 µM (inactive) | > 30 µM (inactive) | > 30 µM (inactive) | > 30 µM (inactive) | > 30 µM (inactive) | > 30 µM (inactive) | > 30 µM (inactive) | 1.06 µM | > 30 µM (inactive) |

The remaining lines, values ahead:

| Kd [1] | Kd [2] | Kd [3] | Kd [4] | Kd [5] | Kd [6] | Kd [7] | Kd [8] | Kd (Focal adhesion kinase 1) | SMILES |
| --- | --- | --- | --- | --- | --- | --- | --- | --- | --- |
| > 30 µM (inactive) | > 30 µM (inactive) | > 30 µM (inactive) | > 30 µM (inactive) | > 30 µM (inactive) | > 30 µM (inactive) | 1.17 µM (active) | 0.366 µM (active) | > 30 µM (inactive) | COc1cc2c(Nc3ccc(Cl)c(Cl)c3F)ncnc2cc1OC[C@@H]1C[C@@H]2CN(C)C[C@@H]2C1 [TESEVATINIB] |
| > 30 µM (inactive) | > 30 µM (inactive) | > 30 µM (inactive) | > 30 µM (inactive) | > 30 µM (inactive) | 0.172 µM (active) | > 30 µM (inactive) | 1.8 µM (active) | > 30 µM (inactive) | C[C@@H](NC(=O)c1ncnc(N)c1Cl)c1ncc(C(=O)Nc2cc(C(F)(F)F)c(Cl)cn2)s1 [TOVORAFENIB] |
| > 30 µM (inactive) | > 30 µM (inactive) | > 30 µM (inactive) | > 30 µM (inactive) | > 30 µM (inactive) | > 30 µM (inactive) | > 30 µM (inactive) | > 30 µM (inactive) | > 30 µM (inactive) | Cn1ncc(Cl)c1-c1cc(C(=O)N[C@H](CN)Cc2ccc(F)c(F)c2)oc1Cl [UPROSERTIB] |
